# Patent US10302631B2, “Genetically encoded probe for quantification of pyruvate concentration and methods of using the same” (CENTRO DE ESTUDIOS CLENTIFICOS DE VALDIVIA, priority 2013, dated 2019)
# Columns and labels:
# [1] = system: monocarboxylate transporter (MCT); test: Initial rate of uptake of 1 mM pyruvate measured with the sensor, inhibition by MCT blockers; format: cell-based, mice; conditions: astrocytic uptake
# Procedure: In this first embodiment, with the information obtained in the calibration step, the disruption of the steady-state of pyruvate entering the cell is carried out by altering the extracellular concentration of pyruvate, thus exposing the cells to pyruvate. This causes a rise in intracellular pyruvate that is monitored with the pyruvate sensor and whose initial rate is independent of pyruvate metabolism and can be used to estimate kinetic parameters (FIG. 18). Exposure of the cells to increasing concentrations of pyruvate allows the estimation of kinetic parameters for the pyruvate transporter. Kinetic parameters are also obtained from the decrease in intracellular pyruvate after removal of extracellular pyruvate. The identity of the transport pathway for pyruvate can be determined by the use of pharmacological blockers of specific transporter proteins, such as phloretin or AR-C155858 (FIG. 18 and FIG. 19), or other such as parachloromercurybenzoate, anti-MCT antisera, etc., or with compounds that interfere with the expression of specific transporter proteins, such as shRNA or siRNA, or by other similar means.
# Animals and Cell Cultures. […]
# (§1) Fluorescence Measurements. Nickel-purified proteins were resuspended at 100 nM in an intracellular buffer containing (mM): 10 NaCl, 130 KCl, 1.25 MgSO4 and 10 HEPES, pH 7.0, and measured with a microplate reader analyzer (EnVision, PerkinElmer). […]
# [2] = system: mitochondrial pyruvate consumption in HEK293 cells; test: Rate of mitochondrial pyruvate consumption, pyruvate as exclusive substrate, after MCT blockage; format: cell-based
# [3] = system: HEK293 cells; test: Rate of cellular pyruvate production after MCT blockage; format: cell-based
# Procedure: In this second embodiment cells are incubated under physiological concentrations of glucose, lactate and pyruvate, and with the information obtained in the calibration step and the known sensitivity of surface pyruvate transporters to specific inhibitors, the steady-state of pyruvate is acutely disrupted by blocking the function of pyruvate transporter, for example by addition of a pharmacological blocker of the pyruvate transporter. In mammalian cells, the pyruvate transporter is the MCT and can be blocked with phloretin, parachloromercurybenzoate, AR-C155858, anti-MCT antisera, or other suitable compounds. […] If the cell is a net pyruvate importer, application of the MCT-blocker causes a fall in intracellular pyruvate concentration, the initial rate of which is equal to the rate of pyruvate consumption on the steady-state. […] A critical property of this sensor is that has a single component of binding so that it allows accurate quantitation of these rates. […]
# as §1, with “PerkinElmer). The proteins were excited at 430 nm and the intensity of fluorescence emission of mTFP and Venus were recorded at 485 nm (FmTFP) and 528 nm (FVenus), respectively.” for “PerkinElmer).”
# [4] = system: Pyronic; test: Specificity: effect of a panel of metabolites on the purified sensor and on its response to pyruvate; format: biochemical, Escherichia coli
# Procedure: The specificity was investigated by exposing the sensor to high concentrations of a panel of metabolites of natural occurrence (FIG. 9). From the chosen set of molecules, citrate and oxalacetate produced a modest effect at 1 mM, and a very small at 100 μM Oxalacetate levels are in the low micromolar range and should not affect the pyruvate sensor, and cytosolic citrate levels are below 100 μM (Siess et al., 1978; Kauppinen et al., 1982), and therefore should have a negligible effect on the pyruvate sensor. Further to explore the specificity, the effect of a panel of metabolites on the response of the sensor to pyruvate was explored (FIGS. 10, 11 and 12). […] The response of the sensor to pyruvate was insensitive to the extreme values of the redox ratio, achieved by manipulating NAD^+ and NADH (FIG. 13).
# Fluorescence Measurements. Nickel-purified proteins were resuspended at 100 nM in an intracellular buffer containing (mM): 10 NaCl, 130 KCl, 1.25 MgSO4 and 10 HEPES, pH 7.0, and measured with a microplate reader analyzer (EnVision, PerkinElmer). The proteins were excited at 430 nm and the intensity of fluorescence emission of mTFP and Venus were recorded at 485 nm (FmTFP) and 528 nm (FVenus), respectively. The ratio (R) between FmTFP and FVenus was used to characterize the sensors. Emission spectra were obtained at 430 nm excitation, with 2 nm windows. Cells were imaged at room temperature (22-25° C.) in a 95% air/5% CO2-gassed solution of the following composition (in mM): 112 NaCl, 1.25 CaCl2, 1.25 MgSO4, 1-2 glucose, 10 HEPES, 24 NaHCO^3, pH 7.4, with 3 mM KCl (astrocytes) or 5 mM KCl (HEK and T98G) using an upright Olympus FV1000 Confocal Microscope equipped with a 20× water immersion objective (N.A. 1.0) and a 440 nm solid-state laser. Alternatively, cells were imaged with an Olympus IX70 or with an Olympus BX51 microscope equipped with a 40× oil-immersion objective (NA 1.3) or with a 20× water-immersion objective (NA 0.95). Microscopes were equipped with CAIRN monochromators (Faversham, UK), and either a Hamamatsu Orca camera controlled by Kinetics software or a Rollera camera controlled with Metafluor software, respectively. For sensor ratio measurements, cells were excited at 430 nm for 0.2-0.8 s. Emission was divided with a CAIRN Optosplit, equipped with band pass filters at 480±20 (FmTFP) and 535±15 nm (FVenus). The ratio between FmTFP and FVenus was used to measure pyruvate.
smiles,measurement,setting,value
Cc1n[nH]c(C)c1Cc1sc2c(c1C(=O)N1C[C@H](O)CO1)c(=O)n(C)c(=O)n2CC(C)C [AR-C155858],inhibition of initial rate of uptake of 1 mM pyruvate,[1]; blocker at 1 μM,strongly inhibited
same,change in cytosolic pyruvate concentration after MCT blockage,"[2]; cells deprived of glucose, high extracellular pyruvate",fall in the cytosolic pyruvate concentration
same,rate of decrease in intracellular pyruvate after MCT blockage,"[2]; single HEK293 cell, pyruvate as exclusive substrate",1.73 µM/s
same,change in intracellular pyruvate after MCT blockage,"[3]; HEK293 cells, blocker at 1 μM",increase in intracellular pyruvate
same,rate of accumulation of intracellular pyruvate after MCT blockage,[3]; single HEK293 cell,0.72 µM/s
O=C(O)CC(O)(CC(=O)O)C(=O)O [citrate],effect on the fluorescence ratio of the sensor,[4]; metabolite at 100 μM,very small
same,effect on the response of the sensor to pyruvate,[4]; metabolite at 100 μM,very small effect
same,effect on the fluorescence ratio of the sensor,[4]; metabolite at 1 mM,modest effect
same,effect on the response of the sensor to pyruvate,[4]; metabolite at 1 mM,significant effect
O=C(O)CC(=O)C(=O)O [oxalacetate],effect on the fluorescence ratio of the sensor,[4]; metabolite at 100 μM,very small
same,effect on the fluorescence ratio of the sensor,[4]; metabolite at 1 mM,modest effect
O=C(CCc1ccc(O)cc1)c1c(O)cc(O)cc1O [phloretin],inhibition of initial rate of uptake of 1 mM pyruvate,[1]; blocker at 50 μM,strongly inhibited
